According to patent US8431597B2, “Benzimidazole derivatives” (Pfizer Inc., priority 2007, dated 2013):
Counter-ions that a name gives are not always drawn.

Target: T1, Smoothened (SMO) (Mus musculus, UniProt P56726)
T1 construct: C3H10T1/2 cells (ATCC #CCL-226) were split and seeded; endogenous in cells; host or cells: C3H10T1/2 (ATCC #CCL-226)
Test: Smoothened (SMO)/Sonic Hedgehog (SHh) Transient Transcriptional Activation Assay (Gli-luciferase reporter in C3H10T1/2 cells)
Assay type: cell-based, murine
Details: C3H 10T1/2, 2 μM compound; transfected C3H10T1/2 cells, recombinant human SHh 250 ng/mL, 20 hours, luciferase readout; read-out: SMO CELL % INHIBITION @ 2 μM
In short: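 C3H10T1/2 cells transiently transfected with a murine Gli-responsive firefly luciferase reporter plus pEGFP were serum-starved 20 h in 0.5% calf serum. Compound (2 μM to 2 nM final) was added with recombinant human SHh at 250 ng/mL final for 20 h at 37 °C. Read-out was Dual-Glo luminescence.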

T1 sequence (P56726 33-793): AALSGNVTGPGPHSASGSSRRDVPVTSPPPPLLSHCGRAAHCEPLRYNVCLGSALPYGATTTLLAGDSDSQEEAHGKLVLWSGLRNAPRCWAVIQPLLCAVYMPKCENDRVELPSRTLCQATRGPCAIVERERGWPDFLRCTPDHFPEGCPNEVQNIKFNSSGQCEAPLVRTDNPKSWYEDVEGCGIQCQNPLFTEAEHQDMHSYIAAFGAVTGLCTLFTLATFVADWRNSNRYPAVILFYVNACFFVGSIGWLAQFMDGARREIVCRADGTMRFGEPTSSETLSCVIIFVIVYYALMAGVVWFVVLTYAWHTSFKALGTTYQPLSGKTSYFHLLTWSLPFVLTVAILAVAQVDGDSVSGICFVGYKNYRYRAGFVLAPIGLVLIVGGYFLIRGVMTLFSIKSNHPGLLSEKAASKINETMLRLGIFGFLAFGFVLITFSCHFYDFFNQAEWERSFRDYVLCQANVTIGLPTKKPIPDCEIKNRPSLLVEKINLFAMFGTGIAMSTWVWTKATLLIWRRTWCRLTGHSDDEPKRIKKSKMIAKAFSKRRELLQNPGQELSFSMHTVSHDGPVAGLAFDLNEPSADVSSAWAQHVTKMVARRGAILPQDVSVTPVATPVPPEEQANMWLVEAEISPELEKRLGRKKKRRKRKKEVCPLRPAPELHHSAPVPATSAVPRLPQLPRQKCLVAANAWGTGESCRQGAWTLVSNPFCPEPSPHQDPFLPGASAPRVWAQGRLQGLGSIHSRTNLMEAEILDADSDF

For `COc1ccc(NC(=O)N[C@@H]2CCN(C)[C@@H](c3nc4cc(C)c(C)cc4[nH]3)C2)cn1` [Example 138, 1-[(2R,4R)-2-(5,6-dimethyl-1H-benzimidazol-2-yl)-1-methylpiperidin-4-yl]-3-(6-methoxypyridin-3-yl)urea hydrochloride], which inhibition at 2 µM is on record?
The inhibition at 2 µM was 108%.

`COc1ccc(NC(=O)N[C@@H]2CCN(C)[C@@H](c3nc4ccc(F)cc4[nH]3)C2)cn1` [Example 139, 1-[(2R,4R)-2-(6-fluoro-1H-benzimidazol-2-yl)-1-methylpiperidin-4-yl]-3-(6-methoxypyridin-3-yl)urea hydrochloride] was tested. Which inhibition at 2 µM did it give?
The inhibition at 2 µM was 106%.

For `CN1CC[C@@H](NC(=S)c2ccc3c(c2)OCCO3)C[C@@H]1c1nc2ccccc2[nH]1` [Example 140, N-[(2R,4R)-2-(1H-benzimidazol-2-yl)-1-methylpiperidin-4-yl]-2,3-dihydro-1,4-benzodioxine-6-carbothioamide hydrochloride], which inhibition at 2 µM is on record?
Its inhibition at 2 µM is 107%.

For `CN1CC[C@@H](NC(=O)c2ccc3c(c2F)OCCO3)C[C@@H]1c1nc2ccccc2[nH]1` [Example 141, N-[(2R,4R)-2-(1H-benzimidazol-2-yl)-1-methylpiperidin-4-yl]-5-fluoro-2,3-dihydro-1,4-benzodioxine-6-carboxamide trifluoroacetate], which inhibition at 2 µM is on record?
The inhibition at 2 µM was 85.3%.

How did the inhibition at 2 µM turn out when `CN1CC[C@@H](NC(=O)c2ccc3c(c2F)OCCO3)C[C@@H]1c1nc2cc(Cl)ccc2[nH]1` [Example 142, N-[(2R,4R)-2-(5-chloro-1H-benzimidazol-2-yl)-1-methylpiperidin-4-yl]-5-fluoro-2,3-dihydro-1,4-benzodioxine-6-carboxamide triflouroacetate] was run?
Its inhibition at 2 µM is 101%.

How did the inhibition at 2 µM turn out when `COc1ccc2[nH]c([C@H]3C[C@H](NC(=O)c4ccc5c(c4F)OCCO5)CCN3C)nc2c1` [Example 143, 5-fluoro-N-[(2R,4R)-2-(5-methoxy-1H-benzimidazol-2-yl)-1-methylpiperidin-4-yl]-2,3-dihydro-1,4-benzodioxine-6-carboxamide triflouroacetate] was run?
Its inhibition at 2 µM is 83.5%.

For `CN1CC[C@@H](NC(=O)c2ccc3c(c2Cl)OCCO3)C[C@@H]1c1nc2ccccc2[nH]1` [Example 144, N-[(2R,4R)-2-(1H-benzimidazol-2-yl)-1-methylpiperidin-4-yl]-5-chloro-2,3-dihydro-1,4-benzodioxine-6-carboxamide triflouroacetate], which inhibition at 2 µM is on record?
The inhibition at 2 µM was 108%.

How did the inhibition at 2 µM turn out when `CN1CC[C@@H](NC(=O)c2ccc3c(c2Cl)OCCO3)C[C@@H]1c1nc2cc(Cl)ccc2[nH]1` [Example 145, 5-chloro-N-[(2R,4R)-2-(5-chloro-1H-benzimidazol-2-yl)-1-methylpiperidin-4-yl]-2,3-dihydro-1,4-benzodioxine-6-carboxamide triflouroacetate] was run?
Its inhibition at 2 µM is 106%.

How did the inhibition at 2 µM turn out when `COc1ccc2[nH]c([C@H]3C[C@H](NC(=O)c4ccc5c(c4Cl)OCCO5)CCN3C)nc2c1` [Example 146, 5-chloro-N-[(2R,4R)-2-(5-methoxy-1H-benzimidazol-2-yl)-1-methylpiperidin-4-yl]-2,3-dihydro-1,4-benzodioxine-6-carboxamide triflouroacetate] was run?
Its inhibition at 2 µM is 107%.

How did the inhibition at 2 µM turn out when `CN1CC[C@@H](NC(=O)c2cc3c(cc2Cl)OCCO3)C[C@@H]1c1nc2ccccc2[nH]1` [Example 147, N-[(2R,4R)-2-(1H-benzimidazol-2-yl)-1-methylpiperidin-4-yl]-7-chloro-2,3-dihydro-1,4-benzodioxine-6-carboxamide triflouroacetate] was run?
Its inhibition at 2 µM is 69.5%.

With `CN1CC[C@@H](NC(=O)c2cc3c(cc2Cl)OCCO3)C[C@@H]1c1nc2cc(Cl)ccc2[nH]1` [Example 148, 7-chloro-N-[(2R,4R)-2-(5-chloro-1H-benzimidazol-2-yl)-1-methylpiperidin-4-yl]-2,3-dihydro-1,4-benzodioxine-6-carboxamide triflouroacetate] as the compound, how does the inhibition at 2 µM read?
Its inhibition at 2 µM is 95%.

`COc1ccc2[nH]c([C@H]3C[C@H](NC(=O)c4cc5c(cc4Cl)OCCO5)CCN3C)nc2c1` [Example 149, 7-chloro-N-[(2R,4R)-2-(5-methoxy-1H-benzimidazol-2-yl)-1-methylpiperidin-4-yl]-2,3-dihydro-1,4-benzodioxine-6-carboxamide triflouroacetate] was tested. Which inhibition at 2 µM did it give?
The inhibition at 2 µM was 35.3%.

`Cc1ccc(NC(=O)N[C@@H]2CCN(C3CCC3)[C@@H](c3nc4ccccc4[nH]3)C2)cn1` [Example 150, 1-[(2R,4R)-2-(1H-benzimidazol-2-yl)-1-cyclobutyl-piperidin-4-yl]-3-(6-methylpyridin-3-yl)urea triflouroacetate] was tested. Which inhibition at 2 µM did it give?
Its inhibition at 2 µM is 106%.

`Cc1ccc2[nH]c([C@H]3C[C@H](NC(=O)Nc4ccc(C)nc4)CCN3C3CCC3)nc2c1` [Example 151, 1-[(2R,4R)-1-cyclobutyl-2-(5-methy-1H-benzimidazol-2-yl)piperidin-4-yl]-3-(6-methylpyridin-3-yl)urea triflouroacetate] was tested. Which inhibition at 2 µM did it give?
Its inhibition at 2 µM is 107%.

`Cc1ccc(NC(=O)N[C@@H]2CCN(C3CCC3)[C@@H](c3nc4cc(C)c(C)cc4[nH]3)C2)cn1` [Example 152, 1-[(2R,4R)-1-cycobutyl-2-(5,6-dimethy-1H-benzimidazol-2-yl)piperidin-4-yl]-3-(6-methylpyridin-3-yl)urea triflouroacetate] was tested. Which inhibition at 2 µM did it give?
The inhibition at 2 µM was 106%.

`COc1ccc2[nH]c([C@H]3C[C@H](NC(=O)Nc4ccc(C)nc4)CCN3C3CCC3)nc2c1` [Example 153, 1-[(2R,4R)-1-cyclobutyl-2-(5-methoxy-1H-benzimidazol-2-y1)piperidin-4-yl]-3-(6-methylpyridin-3-yl)urea triflouroacetate] was tested. Which inhibition at 2 µM did it give?
Its inhibition at 2 µM is 107%.
